Tested on: HFF cells
Experiment: Collagen I production stimulated by SBP eluted from INTEGRA (ELISA)
Format: cell-based, human
Details: versus control INTEGRA pieces
Experimental: These experiments were performed by pre-incubating 1 cm×1 cm pieces of INTEGRA® with SBP (25 μg/ml) as described in Example 3 for either 30 minutes or 16 hours, control pieces were pre-incubated in DMEM only. After this time, the pieces of INTEGRA® were washed in fresh media to remove excess SBP solution, and placed into the wells of a 12-well culture plate pre-seeded with HFF cells (2×10^5cells/well) that were grown to confluency over three days. The media from these wells was collected after 24 and 48 hours with peroxidase activity measured (to determine the rate of elution of the proteins with peroxidase activity from the Integra) and the collagen content measured by ELISA (to ensure the eluted proteins with peroxidase activity retained the capacity to stimulate collagen production by the HFF cells). The peroxidase activity was assessed using the Sigmafast™ O-phenylenediamine dihydrochloride (OPD) detection method as per the manufacturers instructions. Briefly, 5 μl of sample was combined with 100 μl of reagent and relative peroxidase activity determined after 5-10 minutes incubation by measuring absorbance at 450 nm using a Wallac Victor Multilabel HTS counter.

soy bean peroxidase [SBP]
ECM production (collagen I ELISA) by HFF cells exposed to eluted protein: able to stimulate ECM production

Reference: patent US20100239556A1, “PROMOTING ECM PRODUCTION BY FIBROBLAST CELLS AND/OR PROMOTING MIGRATION OF FIBROBLAST CELLS IN A BIOLOGICAL SYSTEM” (TGR BioScience Pty Ltd., priority 2006, published 2010)
